Reference: patent US6737383B1, “Herbicidal oxadiazolidines” (priority 1999, dated 2004)

Legend:
bedstraw = experiment: Test B pre/postemergence bedstraw; assay type: in vivo, Galium aparine
Summary of the method: (§1)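 Response is a visual 0-to-10 score relative to untreated plants, where 0 means no effect and 10 means complete control, taken twelve to sixteen days after application. Treatments went onto soil at planting and onto foliage of 1- to 4-leaf plants, using a surfactant-containing non-phytotoxic solvent.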

blackgrass = experiment: Test B pre/postemergence blackgrass; assay type: in vivo, Alopecurus myosuroides
Summary of the method: as §1

surinam grass = experiment: Test B pre/postemergence surinam grass; assay type: in vivo, Brachiaria decumbens
Summary of the method: as §1

corn = experiment: Test B pre/postemergence corn; assay type: in vivo, Zea mays
Summary of the method: as §1

crabgrass = experiment: Test B pre/postemergence crabgrass; assay type: in vivo, Digitaria sanguinalis
Summary of the method: as §1

pigweed = experiment: Test B pre/postemergence pigweed; assay type: in vivo, Amaranthus retroflexus
Summary of the method: as §1

rape = experiment: Test B pre/postemergence rape; assay type: in vivo, Brassica napus
Summary of the method: as §1

soybean = experiment: Test B pre/postemergence soybean; assay type: in vivo, Glycine max
Summary of the method: as §1

sugar beet = experiment: Test B pre/postemergence sugar beet; assay type: in vivo, Beta vulgaris
Summary of the method: as §1

velvetleaf = experiment: Test B pre/postemergence velvetleaf; assay type: in vivo, Abutilon theophrasti
Summary of the method: as §1

wheat = experiment: Test B pre/postemergence wheat; assay type: in vivo, Triticum aestivum
Summary of the method: as §1

wild oat = experiment: Test B pre/postemergence wild oat; assay type: in vivo, Avena fatua
Summary of the method: as §1

purple nutsedge = experiment: Test B pre/postemergence purple nutsedge; assay type: in vivo, Cyperus rotundus; conditions: Postemergence
Summary of the method: as §1

rice = experiment: Test B flood test rice; assay type: in vivo, Oryza sativa
Summary of the method: (§2)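 Each value is a visual injury score relative to controls, with 10 meaning complete control and 0 no effect. Evaluation took place twelve to sixteen days after the 2-leaf-stage plants were treated and kept in the greenhouse.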

smallflower flatsedge = experiment: Test B flood test smallflower flatsedge; assay type: in vivo, Cyperus difformis
Summary of the method: as §2

duck salad = experiment: Test B flood test duck salad; assay type: in vivo, Heteranthera limosa
Summary of the method: as §2

[1] = Preemergence, Rate 62 g/ha, scale of 0 to 10 where 0 is no effect and 10 is complete control
[2] = Preemergence, Rate 250 g/ha, scale of 0 to 10 where 0 is no effect and 10 is complete control
[3] = Preemergence, Rate 500 g/ha, scale of 0 to 10 where 0 is no effect and 10 is complete control
[4] = Rate 62 g/ha, Postemergence, scale of 0 to 10 where 0 is no effect and 10 is complete control
[5] = Rate 125 g/ha, Postemergence, scale 0 to 10
[6] = Rate 125 g/ha, Preemergence, scale of 0 to 10 where 0 is no effect and 10 is complete control
[7] = Rate 500 g/ha, Postemergence, scale 0 to 10, 0 no effect, 10 complete control
[8] = Rate 62 g/ha, headed Pre-emergence (flood test species), scale 0 to 10 (0 no effect, 10 complete control)
[9] = Rate 125 g/ha, Pre-emergence, flood test species, scale 0 to 10 where 0 is no effect and 10 is complete control
[10] = Rate 250 g/ha, Pre-emergence, flood-test species, scale 0 to 10, 0 is no effect, 10 is complete control
[11] = Rate 500 g/ha, Pre-emergence, flood test species, scale 0 to 10 (0 no effect, 10 complete control)

## CC(C)N(C(=O)n1oc(=O)n(CC2(C)COC2)c1=O)c1ccc(F)cc1 [Compound 226]
bedstraw; [1]
  Bedstraw plant response rating: 0
bedstraw; [2]
  Bedstraw plant response rating: 0
bedstraw; [3]
  Plant response rating, Bedstraw: 0
bedstraw; [4]
  Bedstraw plant response rating: 0
bedstraw; [5]
  Bedstraw plant response rating: 3
bedstraw; [6]
  Bedstraw plant response rating: 0
bedstraw; Rate 250 g/ha, Postemergence
  Plant response rating (0 to 10; 0 is no effect, 10 is complete control), Bedstraw: 5
bedstraw; [7]
  Bedstraw plant response rating: 7
blackgrass; [1]
  Blackgrass plant response rating: 10
blackgrass; [2]
  Blackgrass plant response rating: 10
blackgrass; [3]
  Plant response rating, Blackgrass: 10
blackgrass; [4]
  Blackgrass plant response rating: 0
blackgrass; [5]
  Blackgrass plant response rating: 5
blackgrass; [6]
  Blackgrass plant response rating: 10
blackgrass; Rate 250 g/ha, Postemergence
  Plant response rating (0 to 10; 0 is no effect, 10 is complete control), Blackgrass: 8
blackgrass; [7]
  Blackgrass plant response rating: 9
Surinam grass; [1]
  B. signalgrass plant response rating: 3
Surinam grass; Preemergence, Rate 250 g/ha, scale 0 to 10, 0 is no effect, 10 is complete control
  B. signalgrass plant response rating: 9
Surinam grass; [3]
  Plant response rating, B. signalgrass: 10
Surinam grass; [4]
  B. signalgrass plant response rating: 0
Surinam grass; Rate 125 g/ha, Postemergence, scale 0 (no effect) to 10 (complete control)
  B. signalgrass plant response rating: 2
Surinam grass; [6]
  B. signalgrass plant response rating: 6
Surinam grass; Rate 250 g/ha, Postemergence
  Plant response rating (0 to 10; 0 is no effect, 10 is complete control), B. signalgrass: 6
Surinam grass; [7]
  B. signalgrass plant response rating: 9
corn; [1]
  Corn plant response rating: 0
corn; [2]
  Corn plant response rating: 6
corn; [3]
  Plant response rating, Corn: 9
corn; [4]
  Corn plant response rating: 0
corn; [5]
  Corn plant response rating: 0
corn; [6]
  Corn plant response rating: 0
corn; Rate 250 g/ha, Postemergence
  Plant response rating (0 to 10; 0 is no effect, 10 is complete control), Corn: 0
corn; [7]
  Corn plant response rating: 6
crabgrass; [1]
  Crabgrass plant response rating: 5
crabgrass; [2]
  Crabgrass plant response rating: 10
crabgrass; [3]
  Plant response rating, Crabgrass: 10
crabgrass; [4]
  Crabgrass plant response rating: 0
crabgrass; [5]
  Crabgrass plant response rating: 0
crabgrass; [6]
  Crabgrass plant response rating: 9
crabgrass; Rate 250 g/ha, Postemergence
  Plant response rating (0 to 10; 0 is no effect, 10 is complete control), Crabgrass: 3
crabgrass; [7]
  Crabgrass plant response rating: 8
pigweed; [1]
  Redroot pigweed plant response rating: 0
pigweed; [2]
  Redroot pigweed plant response rating: 7
pigweed; [3]
  Plant response rating, Redroot pigweed: 9
pigweed; [4]
  Redroot pigweed plant response rating: 0
pigweed; [5]
  Redroot pigweed plant response rating: 0
pigweed; [6]
  Redroot pigweed plant response rating: 0
pigweed; Rate 250 g/ha, Postemergence
  Plant response rating (0 to 10; 0 is no effect, 10 is complete control), Redroot pigweed: 0
pigweed; [7]
  Redroot pigweed plant response rating: 0
rape; [1]
  Rape plant response rating: 0
rape; [2]
  Rape plant response rating: 7
rape; [3]
  Plant response rating, Rape: 10
rape; [4]
  Rape plant response rating: 0
rape; [5]
  Rape plant response rating: 0
rape; [6]
  Rape plant response rating: 0
rape; Rate 250 g/ha, Postemergence
  Plant response rating (0 to 10; 0 is no effect, 10 is complete control), Rape: 0
rape; [7]
  Rape plant response rating: 6
soybean; [1]
  Soybean plant response rating: 0
soybean; [2]
  Soybean plant response rating: 0
soybean; [3]
  Plant response rating, Soybean: 0
soybean; [4]
  Soybean plant response rating: 2
soybean; [5]
  Soybean plant response rating: 2
soybean; [6]
  Soybean plant response rating: 0
soybean; Rate 250 g/ha, Postemergence
  Plant response rating (0 to 10; 0 is no effect, 10 is complete control), Soybean: 3
soybean; [7]
  Soybean plant response rating: 6
Sugar beet; [1]
  Sugarbeets plant response rating: 0
Sugar beet; [2]
  Sugarbeets plant response rating: 5
Sugar beet; [3]
  Plant response rating, Sugarbeets: 6
Sugar beet; [4]
  Sugarbeets plant response rating: 0
Sugar beet; [5]
  Sugarbeets plant response rating: 0
Sugar beet; [6]
  Sugarbeets plant response rating: 3
Sugar beet; Rate 250 g/ha, Postemergence
  Plant response rating (0 to 10; 0 is no effect, 10 is complete control), Sugarbeets: 0
Sugar beet; [7]
  Sugarbeets plant response rating: 2
velvetleaf; [1]
  Velvetleaf plant response rating: 2
velvetleaf; [2]
  Velvetleaf plant response rating: 6
velvetleaf; [3]
  Plant response rating, Velvetleaf: 7
velvetleaf; [4]
  Velvetleaf plant response rating: 0
velvetleaf; [5]
  Velvetleaf plant response rating: 0
velvetleaf; [6]
  Velvetleaf plant response rating: 5
velvetleaf; Rate 250 g/ha, Postemergence
  Plant response rating (0 to 10; 0 is no effect, 10 is complete control), Velvetleaf: 0
velvetleaf; [7]
  Velvetleaf plant response rating: 0
wheat; [1]
  Wheat plant response rating: 6
wheat; [2]
  Wheat plant response rating: 8
wheat; [3]
  Plant response rating, Wheat: 8
wheat; [4]
  Wheat plant response rating: 2
wheat; [5]
  Wheat plant response rating: 4
wheat; [6]
  Wheat plant response rating: 8
wheat; Rate 250 g/ha, Postemergence
  Plant response rating (0 to 10; 0 is no effect, 10 is complete control), Wheat: 7
wheat; [7]
  Wheat plant response rating: 9
Wild oat; [1]
  Wild oats plant response rating: 1
Wild oat; [2]
  Wild oats plant response rating: 9
Wild oat; [3]
  Plant response rating, Wild oats: 10
Wild oat; [4]
  Wild oats plant response rating: 0
Wild oat; [5]
  Wild oats plant response rating: 0
Wild oat; [6]
  Wild oats plant response rating: 3
Wild oat; Rate 250 g/ha, Postemergence
  Plant response rating (0 to 10; 0 is no effect, 10 is complete control), Wild oats: 0
Wild oat; [7]
  Wild oats plant response rating: 3
Purple nutsedge; Rate 62 g/ha, scale of 0 to 10 where 0 is no effect and 10 is complete control
  Nutsedge plant response rating: 0
Purple nutsedge; Rate 125 g/ha, scale 0 to 10
  Nutsedge plant response rating: 0
Purple nutsedge; Rate 250 g/ha
  Plant response rating (0 to 10; 0 is no effect, 10 is complete control), Nutsedge: 0
Purple nutsedge; Rate 500 g/ha, scale 0 to 10, 0 no effect, 10 complete control
  Nutsedge plant response rating: 4
rice; [8]
  Rice plant response rating: 0
rice; [9]
  Rice plant response rating: 0
rice; [10]
  Rice plant response rating: 0
rice; [11]
  Rice plant response rating: 0
Smallflower flatsedge; [8]
  S. Flatsedge plant response rating: 0
Smallflower flatsedge; [9]
  S. Flatsedge plant response rating: 0
Smallflower flatsedge; [10]
  S. Flatsedge plant response rating: 0
Smallflower flatsedge; [11]
  S. Flatsedge plant response rating: 0
Duck salad; [8]
  Ducksalad plant response rating: 0
Duck salad; [9]
  Ducksalad plant response rating: 0
Duck salad; [10]
  Ducksalad plant response rating: 0
Duck salad; [11]
  Ducksalad plant response rating: 0
